Reference: patent US8575091B1, “Amylin analogues and pharmaceutical compositions thereof” (Novo Nordisk A/S, priority 2012, dated 2013)
pEC50, pIC50: −log10 of the molar value. Numbered stars: 1 amine (or outer) side, 2 acyl side, 3 side chain; on linkers, the order of the positions; unused ones are H or OH. Bridge positions count the residues as written; N and C are the ends. Side chains are listed from the residue outwards. Peptide text beside a SMILES is read from it. * marks the point of attachment. C20 diacid = O=C(O)CCCCCCCCCCCCCCCCCCC(=O)*; γGlu = O=C(O)[C@H](CCC(=O)[*:2])N[*:1]; AEEA = NCCOCCOCC(=O)O

Key:
[1] = target: T1, human amylin receptor (amylin 3(a) receptor: human calcitonin receptor + RAMP-3) (Homo sapiens, UniProt O60896+P30988); experiment: Assay (II)a functional assay, human amylin receptor (CRE luciferase, BHK cells); assay type: cell-based; conditions: for pEC50: functional assay, human amylin receptor, read-out: hAmylin-R funct. EC50
T1 construct: expressed in transfected cells
T1 sequence (P30988 25-474): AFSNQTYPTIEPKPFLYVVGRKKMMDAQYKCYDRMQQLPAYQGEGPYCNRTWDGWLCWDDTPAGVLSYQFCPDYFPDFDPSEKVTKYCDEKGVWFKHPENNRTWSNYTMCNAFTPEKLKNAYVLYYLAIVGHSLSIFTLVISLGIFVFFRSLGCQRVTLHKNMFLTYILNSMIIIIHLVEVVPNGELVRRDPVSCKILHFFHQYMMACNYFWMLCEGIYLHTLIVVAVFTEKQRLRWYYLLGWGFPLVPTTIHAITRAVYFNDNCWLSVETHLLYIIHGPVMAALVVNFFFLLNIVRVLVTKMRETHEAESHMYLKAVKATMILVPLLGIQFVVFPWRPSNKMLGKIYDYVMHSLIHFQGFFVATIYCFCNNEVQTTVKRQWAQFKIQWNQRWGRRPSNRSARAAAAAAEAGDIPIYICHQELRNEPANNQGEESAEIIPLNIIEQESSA
T1 sequence (O60896 24-148 partner): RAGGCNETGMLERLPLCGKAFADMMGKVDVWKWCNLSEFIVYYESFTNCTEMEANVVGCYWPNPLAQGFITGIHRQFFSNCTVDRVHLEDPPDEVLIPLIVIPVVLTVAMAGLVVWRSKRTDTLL

[2] = target: T2, human calcitonin receptor (Homo sapiens, UniProt P30988); experiment: Assay (II)a functional assay, human calcitonin receptor (CRE luciferase, BHK cells);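 also: luminescence from a CRE-driven luciferase reporter, read by single photon counting after cells were exposed to test samples for 3 h at 37 °C under 5% CO2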; assay type: cell-based; conditions: read-out: hCTR funct. EC50
T2 construct: expressed in transfected cells
T2 sequence (P30988 25-474): T1 sequence (P30988 25-474)

human amylin receptor = target: T3, human amylin receptor (Homo sapiens, UniProt O60896+P30988); experiment: Assay (V) binding to the human amylin receptor (SPA, 125I-rat amylin); conditions: human amylin receptor membranes, SPA; read-out: hAmylin-R bind IC50
T3 construct: expressed in transfected cells
T3 sequence (P30988 25-474): T1 sequence (P30988 25-474)
T3 sequence (O60896 24-148 partner): T1 sequence (O60896 24-148 partner)
Procedure, shortened: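 IC50, taken as receptor affinity, came from one-site binding competition analysis of scintillation proximity counts. Amylin 3(a)/CRE-luc cell membranes (35 ng/μL final) were mixed with SPA beads (0.05 mg/well) in 50 mM Hepes pH 7.4 containing CaCl2, MgCl2, 0.1% OA and 0.02% Tween20.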

[3] = target: T2, human calcitonin receptor; experiment: Assay (VII) binding to the human calcitonin receptor (SPA, 125I-Calcitonin); conditions: read-out: hCTR bind IC50;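 also: cell membranes coupled to SPA beads, competitive displacement read by scintillation counting, IC50 derived from a one-site competition fit as a measure of receptor affinity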

Ratio hCT/hAmylin funct. ([1]; Table 6, human functional selectivity (hCTR EC50 / hAmylin-R EC50)) | Ratio hCT/hAmylin funct. ([1]; Table 6a, human functional selectivity (hCTR EC50 / hAmylin-R EC50), at least 5) | Ratio hCT/hAmylin funct. ([1]; Table 6j, hCTR funct. EC50 / hAmylin-R funct. EC50) | Ratio hCT/hAmylin funct. ([1]; Table 6k, hCTR funct. EC50 / hAmylin-R funct. EC50) | pEC50 [1] | pEC50 [2] | pIC50 (human amylin receptor) | pIC50 [3] | Compound
17.0 | 17.0 | 17.0 | 17.0 | 9.23 | 8.00 | 9.26 | 7.83 | CC[C@H](C)[C@H](NC(=O)[C@H](C)NC(=O)CNC(=O)[C@H](Cc1ccccc1)NC(=O)[C@H](CC(N)=O)NC(=O)[C@@H]1CCCN1C(=O)[C@H](CO)NC(=O)[C@H](CO)NC(=O)[C@H](Cc1c[nH]cn1)NC(=O)[C@H](CCCNC(=N)N)NC(=O)[C@H](CC(C)C)NC(=O)[C@H](Cc1ccccc1)NC(=O)[C@H](CC(N)=O)NC(=O)[C@H](C)NC(=O)[C@H](CC(C)C)NC(=O)[C@H](CCCNC(=N)N)NC(=O)[C@H](CCC(N)=O)NC(=O)[C@@H](NC(=O)[C@H](C)NC(=O)[C@@H]1CSSC[C@H](NC(=O)[C@H](CCCNC(=N)N)NC(=O)[C@@H](N)CCCCNC(=O)COCCOCCNC(=O)CC[C@H](NC(=O)CCCCCCCCCCCCCCCCCCC(=O)O)C(=O)O)C(=O)N[C@@H](CC(N)=O)C(=O)N[C@@H]([C@@H](C)O)C(=O)N[C@@H](C)C(=O)N[C@@H]([C@@H](C)O)C(=O)N1)[C@@H](C)O)C(=O)N1CCC[C@H]1C(=O)N[C@@H](CO)C(=O)N[C@@H](CO)C(=O)N[C@H](C(=O)N[C@@H](CC(N)=O)C(=O)N[C@H](C(=O)NCC(=O)N[C@@H](CO)C(=O)N[C@@H](Cc1c[nH]cn1)C(=O)N[C@H](C(=O)N[C@@H](Cc1ccc(O)cc1)C(N)=O)[C@@H](C)O)C(C)C)[C@@H](C)O [Example 45] (H-K([AEEA-γGlu-C20 diacid])RCNTATCATQRLANFLRHSSPNFGAIPSSTNVGSHTY-NH2; disulfide 3-8)
– | – | – | – | 10.47 | 8.65 | 9.24 | 7.97 | CC[C@H](C)[C@H](NC(=O)[C@H](C)NC(=O)CNC(=O)[C@H](Cc1ccccc1)NC(=O)[C@H](CC(N)=O)NC(=O)[C@@H]1CCCN1C(=O)[C@H](CO)NC(=O)[C@H](CO)NC(=O)[C@H](Cc1c[nH]cn1)NC(=O)[C@H](CCCNC(=N)N)NC(=O)[C@H](CC(C)C)NC(=O)[C@H](Cc1ccccc1)NC(=O)[C@H](CC(N)=O)NC(=O)[C@H](C)NC(=O)[C@H](CC(C)C)NC(=O)[C@H](CCCNC(=N)N)NC(=O)[C@H](CCC(N)=O)NC(=O)[C@@H](NC(=O)[C@H](C)NC(=O)[C@@H]1CSSC[C@H](NC(=O)[C@@H](N)CCCCNC(=O)CC[C@H](NC(=O)CCCCCCCCCCCCCCC(=O)O)C(=O)O)C(=O)N[C@@H](CC(N)=O)C(=O)N[C@@H]([C@@H](C)O)C(=O)N[C@@H](C)C(=O)N[C@@H]([C@@H](C)O)C(=O)N1)[C@@H](C)O)C(=O)N1CCC[C@H]1C(=O)N[C@@H](CO)C(=O)N[C@@H](CO)C(=O)N[C@H](C(=O)N[C@@H](CC(N)=O)C(=O)N[C@H](C(=O)NCC(=O)N[C@@H](Cc1c[nH]cn1)C(=O)N[C@@H](CC(N)=O)C(=O)N[C@H](C(=O)N[C@@H](Cc1ccc(O)cc1)C(N)=O)[C@@H](C)O)C(C)C)[C@@H](C)O [Example 111]
– | – | – | – | 9.79 | 8.57 | 9.26 | 7.77 | CC[C@H](C)[C@H](NC(=O)[C@H](C)NC(=O)CNC(=O)[C@H](Cc1ccccc1)NC(=O)[C@H](CC(N)=O)NC(=O)[C@@H]1CCCN1C(=O)[C@H](CO)NC(=O)[C@H](CO)NC(=O)[C@H](Cc1c[nH]cn1)NC(=O)[C@H](CCCNC(=N)N)NC(=O)[C@H](CC(C)C)NC(=O)[C@H](Cc1ccccc1)NC(=O)[C@H](CC(N)=O)NC(=O)[C@H](C)NC(=O)[C@H](CC(C)C)NC(=O)[C@H](CCCNC(=N)N)NC(=O)[C@H](CCC(N)=O)NC(=O)[C@@H](NC(=O)[C@H](C)NC(=O)[C@@H]1CSSC[C@H](NC(=O)[C@H](CCCCN)NC(=O)CC[C@H](NC(=O)CCCCCCCCCCCCCCCCCCC(=O)O)C(=O)O)C(=O)N[C@@H](CC(N)=O)C(=O)N[C@@H]([C@@H](C)O)C(=O)N[C@@H](C)C(=O)N[C@@H]([C@@H](C)O)C(=O)N1)[C@@H](C)O)C(=O)N1CCC[C@H]1C(=O)N[C@@H](CO)C(=O)N[C@@H](CO)C(=O)N[C@H](C(=O)N[C@@H](CC(N)=O)C(=O)N[C@H](C(=O)NCC(=O)N[C@@H](Cc1c[nH]cn1)C(=O)N[C@@H](CC(N)=O)C(=O)N[C@H](C(=O)N[C@@H](Cc1ccc(O)cc1)C(N)=O)[C@@H](C)O)C(C)C)[C@@H](C)O [Example 40]
